Measured values published in US11046716B2, “Beta-lactamase inhibitors” (priority 2015, dated 2021).

How the values were obtained:
[1] = system: E. cloacae expressing the Class C P99; assay: Broth microdilution MIC assay with ceftazidime, E. cloacae P99; type: cell-based; settings: Fixed CAZ (ceftazidime) 4 μg/mL; E. cl. 144200 p99 AmpC
Method in brief: (§1)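 Strains grown 3-5 hours in CAMHB are inoculated by the CLSI broth microdilution method onto compound dilutions (16 to 0.125 μg/mL) overlaid with β-lactam at 4 μg/ml final. After 16-20 hours at 37° C, the lowest compound concentration inhibiting growth is taken as the MIC.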

OXA-48 = OXA-48 (UniProt Q6XEC0); assay: β-lactamase enzyme inhibition assay, Class D oxacillinase; type: biochemical; settings: read-out: OXA-48
[2] = system: K. pneumoniae expressing the Class A carbapenemase KPC-2; assay: Broth microdilution MIC assay with meropenem, K. pneumoniae KPC-2; type: cell-based; settings: Fixed Mero (meropenem) 4 μg/mL; K. p. 156319 KPC-3
Method in brief: as §1

[3] = system: K. pneumoniae producing the Class D carbapenemase OXA-48; assay: Broth microdilution MIC assay with meropenem, K. pneumoniae OXA-48; type: cell-based; settings: Fixed Mero (meropenem) 4 μg/mL; K. p. 11978 OXA-48
Method in brief: as §1

VIM-2 = target: T1, VIM-2 (Escherichia coli, UniProt Q5U7L7); assay: β-lactamase enzyme inhibition assay, VIM-2 (nitrocefin substrate); type: biochemical; settings: Class B; nitrocefin substrate, 486 nm; read-out: VIM-2
T1 construct: made in house; host or cells: E. coli BL21(DE3)
Method in brief: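 First, VIM-2 purified by repeated anion exchange at pH 7.5 is mixed with inhibitor and held 15 min at 37 °C. Next, nitrocefin (final 100 μM) is dispensed and absorbance at 486 nm monitored immediately for 10 min. Rates versus uninhibited controls give IC50.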

[4] = system: K. pneumoniae expressing the class A carbapenemase KPC-2 and the class B carbapenemase VIM-4; assay: Broth microdilution MIC assay with meropenem, K. pneumoniae KPC-2 and VIM-4; type: cell-based; settings: Fixed Mero (meropenem) 4 μg/mL; K. p. A-1797 KPC-2 VIM-4
Method in brief: as §1

AmpC = target: T2, AmpC (Enterobacter cloacae, UniProt P05364); assay: β-lactamase enzyme inhibition assay, p99 AmpC (nitrocefin substrate); type: biochemical
T2 construct: made in house; host or cells: E. coli BL21(DE3)
Method in brief: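 Compounds are mixed with purified, untagged recombinant β-lactamase and held 15 min at 37 °C. Substrate is then added. Absorbance is followed immediately, and percent inhibition per concentration gives the IC50.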

[5] = system: P. aeruginosa expressing the Class B carbapenemase VIM-2; assay: Broth microdilution MIC assay with meropenem, P. aeruginosa VIM-2; type: cell-based; settings: Fixed Mero (meropenem) 4 μg/mL; P. aerug. 2775 VIM-2
Method in brief: as §1

KPC-2 = target: T3, KPC-2 (Klebsiella pneumoniae, UniProt Q9F663); assay: β-lactamase enzyme inhibition assay, KPC-2 (imipenem substrate); type: biochemical; settings: Class A; imipenem substrate, 300 nm; read-out: KPC-2
T3 construct: made in house; host or cells: E. coli BL21(DE3)
Method in brief: (§2)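 Compounds are mixed with purified, untagged recombinant β-lactamase and held 15 min at 37 °C. Substrate is then added: nitrocefin (100 μM final) for OXA-1, imipenem for KPC-2, cefotaxime for SHV-5. Absorbance is followed immediately, and percent inhibition per concentration gives the IC50.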

[6] = system: E. coli expressing the Class A Extended Spectrum Beta-Lactamase (ESBL) CTX-M-15; assay: Broth microdilution MIC assay with ceftazidime, E. coli CTX-M-15; type: cell-based; settings: Fixed CAZ (ceftazidime) 4 μg/mL; E. coli ESBL4 CTX-M-15
Method in brief: as §1

SHV-5 = target: T4, SHV-5 (Klebsiella pneumoniae, UniProt P0A3M1); assay: β-lactamase enzyme inhibition assay, SHV-5 (cefotaxime substrate); type: biochemical
T4 construct: made in house; host or cells: E. coli BL21(DE3)
Method in brief: as §2

T3 sequence (Q9F663 25-293, looked up): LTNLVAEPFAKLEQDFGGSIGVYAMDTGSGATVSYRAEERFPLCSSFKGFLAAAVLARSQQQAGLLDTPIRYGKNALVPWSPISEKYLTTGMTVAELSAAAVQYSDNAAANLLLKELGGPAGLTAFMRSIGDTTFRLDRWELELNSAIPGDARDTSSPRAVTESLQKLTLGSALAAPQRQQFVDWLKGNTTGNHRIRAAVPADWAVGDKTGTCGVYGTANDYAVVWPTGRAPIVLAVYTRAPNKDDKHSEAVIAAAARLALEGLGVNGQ
T2 sequence (P05364 21-381): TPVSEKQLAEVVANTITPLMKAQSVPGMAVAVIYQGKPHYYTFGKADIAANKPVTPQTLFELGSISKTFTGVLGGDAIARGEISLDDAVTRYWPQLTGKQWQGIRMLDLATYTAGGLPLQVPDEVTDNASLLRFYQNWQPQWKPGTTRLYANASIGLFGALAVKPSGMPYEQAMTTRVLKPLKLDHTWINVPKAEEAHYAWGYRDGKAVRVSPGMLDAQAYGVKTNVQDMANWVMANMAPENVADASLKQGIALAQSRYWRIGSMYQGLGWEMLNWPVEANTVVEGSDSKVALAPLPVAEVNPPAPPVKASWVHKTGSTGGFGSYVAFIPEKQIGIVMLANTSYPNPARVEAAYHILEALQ
T4 sequence (P0A3M1 22-286): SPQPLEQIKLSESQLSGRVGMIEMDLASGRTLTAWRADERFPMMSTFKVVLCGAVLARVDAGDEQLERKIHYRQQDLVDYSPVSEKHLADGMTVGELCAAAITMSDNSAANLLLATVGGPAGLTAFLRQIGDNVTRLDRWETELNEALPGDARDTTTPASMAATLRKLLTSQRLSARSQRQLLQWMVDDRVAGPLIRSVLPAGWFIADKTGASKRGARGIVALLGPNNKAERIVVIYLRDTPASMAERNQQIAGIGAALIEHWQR

Structure (SMILES)	MIC (μg/mL) of Exemplary Compounds in presence of fixed β-lactams: E. cl. 144200 p99 AmpC [1]	IC50 (OXA-48) [µM]	MIC (μg/mL) of Exemplary Compounds in presence of fixed β-lactams: K. p. 156319 KPC-3 [2]	MIC (μg/mL) of Exemplary Compounds in presence of fixed β-lactams: K. p. 11978 OXA-48 [3]	IC50 (VIM-2) [µM]	MIC (μg/mL) of Exemplary Compounds in presence of fixed β-lactams: K. p. A-1797 KPC-2 VIM-4 [4]	IC50 (AmpC) [µM]	MIC (μg/mL) of Exemplary Compounds in presence of fixed β-lactams: P. aerug. 2775 VIM-2 [5]	IC50 (KPC-2) [µM]	MIC (μg/mL) of Exemplary Compounds in presence of fixed β-lactams: E. coli ESBL4 CTX-M-15 [6]	IC50 (SHV-5) [µM]
NCCCC[C@@H](C(=O)N[C@H]1Cc2cccc(C(=O)O)c2OB1O)n1cc(CN)nn1 [Example 113, (R)-3-((S)-6-amino-2-(4-(aminomethyl)-1H-1,2,3-triazol-1-yl)hexanamido)-2-hydroxy-3,4-dihydro-2H-benzo[e][1,2]oxaborinine-8-carboxylic acid]	C (C represents an MIC of <1 μg/mL)	0.1 to 1	B (B represents an MIC between 1 and 16 μg/mL inclusive)	A (A represents an MIC>16 μg/mL)	< 0.1	C (C represents an MIC of <1 μg/mL)	< 0.1	C (C represents an MIC of <1 μg/mL)	0.1 to 1	C (C represents an MIC of <1 μg/mL)	1 to 10
O=C(Cn1cc(C(=O)NC2CCNCC2)nn1)N[C@H]1Cc2cccc(C(=O)O)c2OB1O [Example 83, (R)-2-hydroxy-3-(2-(4-(piperidin-4-ylcarbamoyl)-1H-1,2,3-triazol-1-yl)acetamido)-3,4-dihydro-2H-benzo[e][1,2]oxaborinine-8-carboxylic acid]	C (C represents an MIC of <1 μg/mL)	0.1 to 1	C (C represents an MIC of <1 μg/mL)	B (B represents an MIC between 1 and 16 μg/mL inclusive)	< 0.1	B (B represents an MIC between 1 and 16 μg/mL inclusive)	< 0.1	C (C represents an MIC of <1 μg/mL)	0.1 to 1	C (C represents an MIC of <1 μg/mL)	0.1 to 1
NCc1cn(CC(=O)N[C@H]2Cc3cccc(C(=O)O)c3OB2O)nn1 [Example 2, (R)-3-(2-(4-(aminomethyl)-1H-1,2,3-triazol-1-yl)acetamido)-2-hydroxy-3,4-dihydro-2H-benzo[e][1,2]oxaborinine-8-carboxylic acid]	C (C represents an MIC of <1 μg/mL)	0.1 to 1	C (C represents an MIC of <1 μg/mL)	B (B represents an MIC between 1 and 16 μg/mL inclusive)	< 0.1	C (C represents an MIC of <1 μg/mL)	< 0.1	C (C represents an MIC of <1 μg/mL)	< 0.1	C (C represents an MIC of <1 μg/mL)	< 0.1
Cc1c(CN)nnn1CC(=O)N[C@H]1Cc2cccc(C(=O)O)c2OB1O [Example 106, (R)-3-(2-(4-(aminomethyl)-5-methyl-1H-1,2,3-triazol-1-yl)acetamido)-2-hydroxy-3,4-dihydro-2H-benzo[e][1,2]oxaborinine-8-carboxylic acid]	C (C represents an MIC of <1 μg/mL)	< 0.1	C (C represents an MIC of <1 μg/mL)	B (B represents an MIC between 1 and 16 μg/mL inclusive)	< 0.1	C (C represents an MIC of <1 μg/mL)	< 0.1	C (C represents an MIC of <1 μg/mL)	< 0.1	C (C represents an MIC of <1 μg/mL)	0.1 to 1
O=C(Cn1cc(C2CNC2)nn1)N[C@H]1Cc2cccc(C(=O)O)c2OB1O [Example 90, (R)-3-(2-(4-(azetidin-3-yl)-1H-1,2,3-triazol-1-yl)acetamido)-2-hydroxy-3,4-dihydro-2H-benzo[e][1,2]oxaborinine-8-carboxylic acid]	C (C represents an MIC of <1 μg/mL)	1 to 10	B (B represents an MIC between 1 and 16 μg/mL inclusive)	B (B represents an MIC between 1 and 16 μg/mL inclusive)	0.1 to 1	B (B represents an MIC between 1 and 16 μg/mL inclusive)	< 0.1	C (C represents an MIC of <1 μg/mL)	< 0.1	C (C represents an MIC of <1 μg/mL)	0.1 to 1
NCc1ncn(CC(=O)N[C@H]2Cc3cccc(C(=O)O)c3OB2O)n1 [Example 125]	C (C represents an MIC of <1 μg/mL)	1 to 10	C (C represents an MIC of <1 μg/mL)	B (B represents an MIC between 1 and 16 μg/mL inclusive)	< 0.1	C (C represents an MIC of <1 μg/mL)	< 0.1	C (C represents an MIC of <1 μg/mL)	< 0.1	C (C represents an MIC of <1 μg/mL)	0.1 to 1
O=C(Cn1cc2c(n1)CNC2)N[C@H]1Cc2cccc(C(=O)O)c2OB1O [Example 57, (R)-3-(2-(5,6-dihydropyrrolo[3,4-c]pyrazol-2(4H)-yl)acetamido)-2-hydroxy-3,4-dihydro-2H-benzo[e][1,2]oxaborinine-8-carboxylic acid]	C (C represents an MIC of <1 μg/mL)	1 to 10	C (C represents an MIC of <1 μg/mL)	B (B represents an MIC between 1 and 16 μg/mL inclusive)	0.1 to 1	B (B represents an MIC between 1 and 16 μg/mL inclusive)	< 0.1	B (B represents an MIC between 1 and 16 μg/mL inclusive)	< 0.1	C (C represents an MIC of <1 μg/mL)	< 0.1
NCCn1cnnc1CC(=O)N[C@H]1Cc2cccc(C(=O)O)c2OB1O [Example 117, (R)-3-(2-(4-(2-aminoethyl)-4H-1,2,4-triazol-3-yl)acetamido)-2-hydroxy-3,4-dihydro-2H-benzo[e][1,2]oxaborinine-8-carboxylic acid]	C (C represents an MIC of <1 μg/mL)	0.1 to 1	C (C represents an MIC of <1 μg/mL)	B (B represents an MIC between 1 and 16 μg/mL inclusive)	0.1 to 1	B (B represents an MIC between 1 and 16 μg/mL inclusive)	< 0.1	C (C represents an MIC of <1 μg/mL)	0.1 to 1	C (C represents an MIC of <1 μg/mL)	< 0.1
